Measurements from patent US6800621B2, “Imidazo[4,5-b]-pyridiniummethyl-containing cephem compounds having broad antibacterial spectrum activity” (Shionogi & Co., Ltd., priority 1998, dated 2004).
Converted amounts (≈) assume the structure as drawn. Counter-ions that a name gives are not always drawn. Like-named read-outs stand apart in the source and are kept apart here.

Columns and labels:
S.marvescens ATCC 13880 = experiment: MIC by agar dilution method; format: cell-based
Procedure: (§1) The minimal inhibitory concentration (MIC) of compound (I) against various bacteria was determined by an agar dilution method. As reference compounds, used were cefozopran hydrochloride (CZOP) described in JP(A) Kokai H03-47189, cefoselis sulfate (CFSL) described in JP(A) Kokai H07-196665 and WO97/41128, compound A of which 3-side chain is a type of imidazo[4,5-c]pyridiniummethyl, and vancomycin. In the table, “Ex5-3”, for example, represents the end compound of the present invention obtained in Example 5-3, and the others are similarly expressed.

E.cloacae ATCC 13047 = experiment: MIC by agar dilution method; format: cell-based; conditions: E.cloacae ATCC 13047, G(−)
Procedure: as §1

S.aureus SR3626 = experiment: MIC by agar dilution method; format: cell-based; conditions: S.aureus SR3626 (MRSA), G(+)
Procedure: as §1

E.coli SR5028 = experiment: MIC by agar dilution method; format: cell-based; conditions: E.coli SR5028, G(−)
Procedure: as §1

S.pneumoniae Type 1 = experiment: MIC by agar dilution method; format: cell-based; conditions: S.pneumoniae Type 1, G(+)
Procedure: as §1

P.aeruginosae SR5393 = experiment: MIC by agar dilution method; format: cell-based; conditions: P.aeruginosae SR5393, G(−)
Procedure: as §1

S.aureus SR3637 [1] = experiment: MIC by agar dilution method; format: cell-based; conditions: S.aureus SR3637 (MRSA), G(+)
Procedure: as §1

P.vulgaris CN-329 = experiment: MIC by agar dilution method; format: cell-based; conditions: P.vulgaris CN-329, G(−)
Procedure: as §1

S.mitis SR16376 = experiment: MIC by agar dilution method; format: cell-based; conditions: S.mitis SR16376, G(+)
Procedure: as §1

E.faecalis SR1004 = experiment: MIC by agar dilution method; format: cell-based; conditions: E.faecalis SR1004, G(+)
Procedure: as §1

S.aureus SR14 = experiment: MIC by agar dilution method; format: cell-based; conditions: S.aureus SR14, G(+)
Procedure: as §1

S.aureus SMITH = experiment: MIC by agar dilution method; format: cell-based; conditions: S.aureus SMITH, G(+)
Procedure: as §1

E.cloacae SR4321 = experiment: MIC by agar dilution method; format: cell-based; conditions: E.cloacae SR4321, G(−)
Procedure: as §1

P.aeruginosa SR24 = experiment: MIC by agar dilution method; format: cell-based; conditions: P.aeruginosa SR24, G(−)
Procedure: as §1

E.coli NIH JC-2 = experiment: MIC by agar dilution method; format: cell-based; conditions: E.coli NIH JC-2, G(−)
Procedure: as §1

S.pneumoniae SR16675 = experiment: MIC by agar dilution method; format: cell-based; conditions: S.pneumoniae SR16675, G(+)
Procedure: as §1

S.aureus SR3637 [2] = experiment: ED50 mouse/S.aureus SR3637; format: in vivo
[3] = Enterobacter cloacae, ATCC13047, read-out: MIC
[4] = Staphylococcus aureus, read-out: MIC
[5] = Escherichia coli, read-out: MIC
[6] = Streptococcus pneumoniae, TYPE1, read-out: MIC
[7] = Proteus vulgaris, CN329, read-out: MIC
[8] = Streptococcus mitis, read-out: MIC
[9] = Enterococcus faecalis, read-out: MIC
[10] = Enterobacter cloacae, read-out: MIC
[11] = Pseudomonas aeruginosa, read-out: MIC
[12] = Escherichia coli, NIHJC2, read-out: MIC
[13] = Streptococcus pneumoniae, read-out: MIC

Compound	MIC (E.cloacae ATCC 13047; [3])	MIC (S.aureus SR3626; [4])	MIC (E.coli SR5028; [5])	MIC (S.pneumoniae Type 1; [6])	MIC (P.aeruginosae SR5393; read-out: MIC)	MIC (S.aureus SR3637 [1]; [4])	MIC (P.vulgaris CN-329; [7])	MIC (S.mitis SR16376; [8])	MIC (E.faecalis SR1004; [9])	MIC (S.aureus SR14; [4])	MIC (S.aureus SMITH; [4])	MIC (E.cloacae SR4321; [10])	MIC (P.aeruginosa SR24; [11])	MIC (E.coli NIH JC-2; [12])	MIC (S.pneumoniae SR16675; [13])	MIC (S.marvescens ATCC 13880; S.marvescens ATCC 13880, G(−))	MIC (E.cloacae ATCC 13047)	MIC (S.aureus SR3626)	MIC (E.coli SR5028)	MIC (S.pneumoniae Type 1)	other results
CCO/N=C(\C(=O)NC1C(=O)N2C(C(=O)[O-])=C(C[n+]3ccc4c(c3)ncn4CCCN)CSC12)c1nsc(N)n1 (centres unmarked) [A, reference compound]	0.48 µg/mL (≈ 0.818 µM)	25 µg/mL (≈ 42.6 µM)	1.56 µg/mL (≈ 2.66 µM)	0.0125 µg/mL (≈ 0.0213 µM)	3.13 µg/mL (≈ 5.34 µM)	25 µg/mL (≈ 42.6 µM)	0.1 µg/mL (≈ 0.17 µM)	0.1 µg/mL (≈ 0.17 µM)	50 µg/mL (≈ 85.2 µM)	3.13 µg/mL (≈ 5.34 µM)	0.78 µg/mL (≈ 1.33 µM)	12.5 µg/mL (≈ 21.3 µM)	0.78 µg/mL (≈ 1.33 µM)	0.05 µg/mL (≈ 0.0852 µM)	0.39 µg/mL (≈ 0.665 µM)						MIC (S.marvescens ATCC 13880): 0.1 µg/mL (≈ 0.17 µM)
CO/N=C(\C(=O)N[C@@H]1C(=O)N2C(C(=O)[O-])=C(Cn3cc[n+]4ncccc34)CS[C@H]12)c1nsc(N)n1 [CZOP, cefozopran hydrochloride, reference compound]	0.2 µg/mL	50 µg/mL	0.78 µg/mL	0.05 µg/mL	1.56 µg/mL	50 µg/mL	0.2 µg/mL	0.2 µg/mL	25 µg/mL	0.78 µg/mL	0.78 µg/mL	6.25 µg/mL	0.78 µg/mL	0.05 µg/mL	0.78 µg/mL						MIC (S.marvescens ATCC 13880; S.marvescens ATCC 13880, G(−), read-out: MIC): 0.1 µg/mL
CCON=C(C(=O)NC1C(=O)N2C(C(=O)[O-])=C(C[n+]3cccc4c3ncn4C3CCNC3)CSC12)c1nsc(N)n1.Cl (centres unmarked) [Ex4-1]																0.2 µg/mL	0.78 µg/mL	3.13 µg/mL	3.13 µg/mL	0.025 µg/mL	ED50 (S.aureus SR3637 [2]): 11.3 mg/kg; MIC (P.aeruginosae SR5393): 3.13 µg/mL; MIC (S.aureus SR3637 [1]): 6.25 µg/mL; MIC (P.vulgaris CN-329): 0.78 µg/mL; MIC (S.mitis SR16376): 0.1 µg/mL; MIC (E.faecalis SR1004): 50 µg/mL; MIC (S.aureus SR14): 1.56 µg/mL; MIC (S.aureus SMITH): 0.78 µg/mL; MIC (E.cloacae SR4321): 25 µg/mL; MIC (P.aeruginosa SR24): 0.78 µg/mL; MIC (E.coli NIH JC-2): 0.2 µg/mL; MIC (S.pneumoniae SR16675): 0.39 µg/mL
CCON=C(C(=O)NC1C(=O)N2C(C(=O)[O-])=C(C[n+]3cccc4c3ncn4CCCN)CSC12)c1nsc(N)n1.Cl (centres unmarked) [Ex5-2]																0.39 µg/mL	0.78 µg/mL	3.13 µg/mL	3.13 µg/mL	0.025 µg/mL	MIC (P.aeruginosae SR5393): 3.13 µg/mL; MIC (S.aureus SR3637 [1]): 3.13 µg/mL; MIC (P.vulgaris CN-329): 0.78 µg/mL; MIC (S.mitis SR16376): 0.2 µg/mL; MIC (E.faecalis SR1004): 50 µg/mL; MIC (S.aureus SR14): 0.78 µg/mL; MIC (S.aureus SMITH): 0.78 µg/mL; MIC (E.cloacae SR4321): 25 µg/mL; MIC (P.aeruginosa SR24): 0.78 µg/mL; MIC (E.coli NIH JC-2): 0.39 µg/mL; MIC (S.pneumoniae SR16675): 0.78 µg/mL
